These results are taken from patent publication US6558699B2, “High drug load immediate and modified release oral dosage formulations and processes for their manufacture” (SmithKline Beecham Corporation, priority 1997, dated 2003).

The nature of data set [1]: Hydrate formation during wet granulation (TGA, DSC, XRD). Type of data set: physicochemical. Conditions: wet granulation with water. The text has this: FIGS. 1(A), 2(A) and 3(A) show, respectively, the thermogravimetric analysis (TGA), the differential scanning calorimetric (DSC) thermogram and the powder X-ray diffraction (XRD) pattern of the free base of anhydrous (E)-α-[2-n-butyl-1-[(4-carboxyphenyl)methyl]-1H-imidazol-5-yl]methylene-2-thiophenepropionic acid.
FIGS. 1B-D, 2B-D and 3B-D show, respectively, the thermogravimetric analysis (TGA), the differential scanning calorimetric (DSC) thermogram and the powder X-ray diffraction (XRD) patterns for the granulations of the free base of anhydrous (E)-α-[2-n-butyl-1-[(4-carboxyphenyl)methyl]-1H-imidazol-5-yl]methylene-2-thiophenepropionic acid with different binders and binder-diluent combinations.
FIGS. 1B, 2B and 3B show, respectively, the thermogravimetric analysis (TGA), the differential scanning calorimetric (DSC) thermogram and the powder X-ray diffraction (XRD) patterns for the granulations of (E)-α-[2-n-butyl-1-[(4-carboxyphenyl)methyl]-1H-imidazol-5-yl]methylene-2-thiophenepropionic acid with Starch 1551 (96/4 eprosartan free base/Starch 1551). […]

Data set [2] can be described thus: Human clinical studies (tolerability and pharmacokinetics). Conditions: for safety and tolerability: human clinical studies, doses up to 800 mg per day. Type of data set: in vivo.
Data set [3] can be described thus: Drug release from enteric-coated modified release tablets and drug solubility at the initiation pH. Conditions: pH >4.0 (PVAP), >5.0 (HPMCP), 5.5 (Eudragit). The text has this: Tablets of Formulas 1-4 may be optionally provided with an aqueous film coating. Generally, these tablets are coated first with a polymer solution to form a clear film, and then coated with an aqueous polymer solution/suspension to form an opaque, white or colored film. […] In contrast, tablets of Formulas 5-7 are first coated with an aqueous polymer solution to form a clear film (often called seal coat) and then with an aqueous solution/suspension of an enteric polymer such as Eudragit L30D, hydroxypropyl methycellulose acetate phthalate (HPMCP), cellulose acetate phthalate (CAP) or polyvinyl acetate phthalate (PVAP). The weight gains following seal coat and enteric coat are about 3-6% and 4-12% (most preferably 3-4% and 4-6%) respectively. The modified release tablets thus produced release <20% drug in the stomach following the oral administration and rapidly release the drug at higher pHs, depending on the polymer used (for e.g., at a pH >4.0 for PVAP, >5.0 for HPMCP and 5.5 for Eudragit), even though the drug solubility at these initiation pHs is negligible. The water imbibed into the tablets dissolves arginine creating a high pH environment in which Eprosartan dissolves. This high pH also dissolves the film coating, releasing the drug substance to the environment.

`CCCCc1ncc(/C=C(\Cc2cccs2)C(=O)O)n1Cc1ccc(C(=O)O)cc1.CS(=O)(=O)O` [(E)-α-[2-n-Butyl-1-[(4-carboxyphenyl)-methyl]-1H-imidazol-5-yl]methylene-2-thiophenepropionic acid monomethanesulfonate]: the “hydrate formation during wet granulation” value in data set [1] is listed as “forms a dihydrate”. In data set [2], the safety and tolerability entry was “safe and well tolerated”. In addition, in data set [2] (human, in vivo, oral, read-out: mean absolute bioavailability), the bioavailability (usually dose-corrected exposure relative to a reference, in per cent) was around 13%.

On to `CCCCc1ncc(/C=C(\Cc2cccs2)C(=O)O)n1Cc1ccc(C(=O)O)cc1` [Eprosartan, (E)-α-[2-n-Butyl-1-[(4-carboxyphenyl)methyl]-1H-imidazol-5-yl]methylene-2-thiophenepropionic acid], for which, in data set [1], the “hydrate formation during wet granulation” value is recorded as “does not form a hydrate”. Moreover, the “drug solubility at the initiation pHs” value in data set [3] is on record as “negligible”. Besides, the safety and tolerability result in data set [2] is “safe and well tolerated”.
